What all share (experiment): biochemical
Holding throughout (set-up): KINOMEscan competition binding, DNA-tagged kinase against immobilised ligand, qPCR read-out

One test concerns the target MUSK (Homo sapiens, UniProt O15146). To be noted: read-out: Percent Control.
The next test has as its target MAP2K2 (Homo sapiens, UniProt P36507). Conditions: read-out: Percent Control.
For the next test, the target named is PKN2 (Homo sapiens, UniProt Q16513). To be noted: read-out: Percent Control.
Another test has as its target STK38 (Homo sapiens, UniProt Q15208). Conditions: read-out: Percent Control.
The next test addresses HCK (Homo sapiens, UniProt P08631). Conditions: read-out: Percent Control.
Test [1] concerns the target T1, RSK1(Kin.Dom.1-N-terminal) (Homo sapiens, UniProt Q15418).
T1 construct: gene RPS6KA1; Kin.Dom.1 N-terminal
To be noted: read-out: Percent Control.

A further test deals with PRKCE (Homo sapiens, UniProt Q02156). Conditions: read-out: Percent Control.
Another test has as its target FLT3-autoinhibited (Homo sapiens, UniProt P36888). To be noted: read-out: Percent Control.
Another test addresses WNK3 (Homo sapiens, UniProt Q9BYP7). Conditions: read-out: Percent Control.
In another test the target is AKT1 (Homo sapiens, UniProt P31749). To be noted: read-out: Percent Control.
The target of another test is TAOK3 (Homo sapiens, UniProt Q9H2K8). To be noted: read-out: Percent Control.
The next test addresses MAP3K19 (Homo sapiens, UniProt Q56UN5). The procedure, abridged:
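Compound tested as an 11-point, 3-fold dilution series (DMSO stocks at 100×, 1× in assay) for displacing DNA-tagged kinase from an immobilised ligand. Kinase remaining on the ligand is read out by qPCR.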

For the next test, the target named is T2, ADCK4 (Homo sapiens, UniProt Q96D53).
T2 construct: gene COQ8B
Conditions: read-out: Percent Control.

Another test has as its target MAPK3 (Homo sapiens, UniProt P27361). Conditions: read-out: Percent Control.
For a further test, the target named is CDKL1 (Homo sapiens, UniProt Q00532). To be noted: read-out: Percent Control.
The next test addresses CAMKK2 (Homo sapiens, UniProt Q96RR4). Conditions: read-out: Percent Control.
Another test has as its target BMPR1B (Homo sapiens, UniProt O00238). To be noted: read-out: Percent Control.
The next test concerns the target PI4KB (Homo sapiens, UniProt Q9UBF8). To be noted: read-out: Percent Control.
The target in a further test is KDR (Homo sapiens, UniProt P35968). Conditions: read-out: Percent Control.
The target in a further test is CSNK1G1 (Homo sapiens, UniProt Q9HCP0). Conditions: read-out: Percent Control.

This passage reports remaining binding and Kd results from article PMC10507085, “Pharmacological inhibition of TBK1/IKKε blunts immunopathology in a murine model of SARS-CoV-2 infection” (Nature Communications, 2023).

Chain of MAP3K19 (Q56UN5 whole entry): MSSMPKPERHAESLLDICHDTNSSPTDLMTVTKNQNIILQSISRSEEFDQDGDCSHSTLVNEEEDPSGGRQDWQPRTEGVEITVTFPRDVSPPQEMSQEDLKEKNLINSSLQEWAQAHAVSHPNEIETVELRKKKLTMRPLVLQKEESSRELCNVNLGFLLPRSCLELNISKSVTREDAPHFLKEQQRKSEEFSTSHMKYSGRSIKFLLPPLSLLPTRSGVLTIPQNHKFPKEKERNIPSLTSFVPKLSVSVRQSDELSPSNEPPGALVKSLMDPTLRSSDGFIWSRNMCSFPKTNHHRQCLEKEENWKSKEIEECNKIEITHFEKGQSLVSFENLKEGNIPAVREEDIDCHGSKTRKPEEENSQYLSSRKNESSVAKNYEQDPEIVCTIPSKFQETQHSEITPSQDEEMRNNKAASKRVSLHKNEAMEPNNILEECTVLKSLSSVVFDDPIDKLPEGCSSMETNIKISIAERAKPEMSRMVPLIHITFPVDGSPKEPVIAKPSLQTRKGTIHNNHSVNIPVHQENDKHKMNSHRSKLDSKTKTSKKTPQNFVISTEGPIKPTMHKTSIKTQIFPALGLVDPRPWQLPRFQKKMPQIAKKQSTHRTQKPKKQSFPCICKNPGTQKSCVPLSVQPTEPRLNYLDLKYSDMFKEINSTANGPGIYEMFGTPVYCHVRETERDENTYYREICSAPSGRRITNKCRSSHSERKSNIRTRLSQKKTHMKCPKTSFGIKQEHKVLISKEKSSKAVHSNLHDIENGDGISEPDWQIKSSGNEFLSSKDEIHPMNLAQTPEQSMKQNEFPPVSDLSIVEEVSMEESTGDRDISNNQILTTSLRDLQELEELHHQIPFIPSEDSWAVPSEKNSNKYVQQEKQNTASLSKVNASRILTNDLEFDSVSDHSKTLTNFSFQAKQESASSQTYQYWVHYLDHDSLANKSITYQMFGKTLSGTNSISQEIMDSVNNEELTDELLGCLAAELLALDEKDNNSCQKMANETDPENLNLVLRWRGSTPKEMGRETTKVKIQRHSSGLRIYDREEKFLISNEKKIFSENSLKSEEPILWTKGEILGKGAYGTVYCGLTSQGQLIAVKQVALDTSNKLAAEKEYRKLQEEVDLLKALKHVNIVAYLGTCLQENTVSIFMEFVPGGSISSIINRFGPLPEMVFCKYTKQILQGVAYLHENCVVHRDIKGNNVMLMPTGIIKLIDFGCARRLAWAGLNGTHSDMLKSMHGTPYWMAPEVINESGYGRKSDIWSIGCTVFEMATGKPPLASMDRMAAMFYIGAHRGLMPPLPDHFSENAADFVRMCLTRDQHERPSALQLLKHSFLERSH
Chain of FLT3-autoinhibited (P36888 whole entry): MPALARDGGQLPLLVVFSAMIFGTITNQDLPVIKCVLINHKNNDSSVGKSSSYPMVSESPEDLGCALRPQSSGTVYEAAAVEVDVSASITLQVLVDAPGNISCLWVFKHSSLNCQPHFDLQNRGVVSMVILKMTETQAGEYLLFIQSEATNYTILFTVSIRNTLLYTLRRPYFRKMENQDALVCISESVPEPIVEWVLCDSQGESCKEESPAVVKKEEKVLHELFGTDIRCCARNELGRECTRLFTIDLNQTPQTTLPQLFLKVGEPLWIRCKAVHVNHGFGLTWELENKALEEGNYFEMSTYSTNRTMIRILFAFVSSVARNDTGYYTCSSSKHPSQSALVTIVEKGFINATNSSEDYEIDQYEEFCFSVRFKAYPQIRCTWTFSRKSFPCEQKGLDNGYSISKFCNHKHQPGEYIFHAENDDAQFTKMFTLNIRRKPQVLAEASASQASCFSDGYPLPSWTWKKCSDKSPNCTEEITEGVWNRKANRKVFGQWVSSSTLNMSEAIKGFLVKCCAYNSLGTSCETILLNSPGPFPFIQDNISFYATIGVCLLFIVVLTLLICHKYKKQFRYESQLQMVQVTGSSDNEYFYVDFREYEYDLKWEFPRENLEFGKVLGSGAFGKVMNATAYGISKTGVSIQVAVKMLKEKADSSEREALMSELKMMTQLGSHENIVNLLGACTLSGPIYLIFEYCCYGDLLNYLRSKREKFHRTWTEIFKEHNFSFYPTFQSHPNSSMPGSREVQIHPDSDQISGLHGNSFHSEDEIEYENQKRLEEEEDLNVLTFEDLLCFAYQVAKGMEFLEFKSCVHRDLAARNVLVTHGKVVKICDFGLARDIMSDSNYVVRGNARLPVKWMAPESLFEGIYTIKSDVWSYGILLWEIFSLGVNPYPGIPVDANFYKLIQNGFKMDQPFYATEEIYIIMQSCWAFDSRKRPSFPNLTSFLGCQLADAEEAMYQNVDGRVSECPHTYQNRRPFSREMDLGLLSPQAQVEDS
Chain of MUSK (O15146 whole entry): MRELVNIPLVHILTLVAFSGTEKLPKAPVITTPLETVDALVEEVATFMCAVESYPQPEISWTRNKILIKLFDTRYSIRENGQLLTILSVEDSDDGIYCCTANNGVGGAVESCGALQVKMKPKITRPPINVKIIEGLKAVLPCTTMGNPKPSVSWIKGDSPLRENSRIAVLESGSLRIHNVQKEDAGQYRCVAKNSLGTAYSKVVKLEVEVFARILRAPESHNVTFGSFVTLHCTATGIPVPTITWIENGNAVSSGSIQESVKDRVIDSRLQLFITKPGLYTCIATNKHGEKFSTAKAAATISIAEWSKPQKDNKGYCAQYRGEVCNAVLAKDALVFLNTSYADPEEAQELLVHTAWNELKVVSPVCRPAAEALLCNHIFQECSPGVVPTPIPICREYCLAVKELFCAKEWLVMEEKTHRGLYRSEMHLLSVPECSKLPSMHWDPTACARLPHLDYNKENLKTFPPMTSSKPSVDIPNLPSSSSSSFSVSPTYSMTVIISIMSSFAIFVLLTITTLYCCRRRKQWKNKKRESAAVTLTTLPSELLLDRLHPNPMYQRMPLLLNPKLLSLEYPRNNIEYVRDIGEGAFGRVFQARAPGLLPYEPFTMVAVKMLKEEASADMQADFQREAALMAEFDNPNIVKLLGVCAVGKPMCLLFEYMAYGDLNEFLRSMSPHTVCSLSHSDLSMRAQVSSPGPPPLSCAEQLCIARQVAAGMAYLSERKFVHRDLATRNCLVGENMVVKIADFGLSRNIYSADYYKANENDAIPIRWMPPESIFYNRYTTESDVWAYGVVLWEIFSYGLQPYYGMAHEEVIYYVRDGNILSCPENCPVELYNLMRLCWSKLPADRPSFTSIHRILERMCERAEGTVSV
Chain of MAP2K2 (P36507 whole entry): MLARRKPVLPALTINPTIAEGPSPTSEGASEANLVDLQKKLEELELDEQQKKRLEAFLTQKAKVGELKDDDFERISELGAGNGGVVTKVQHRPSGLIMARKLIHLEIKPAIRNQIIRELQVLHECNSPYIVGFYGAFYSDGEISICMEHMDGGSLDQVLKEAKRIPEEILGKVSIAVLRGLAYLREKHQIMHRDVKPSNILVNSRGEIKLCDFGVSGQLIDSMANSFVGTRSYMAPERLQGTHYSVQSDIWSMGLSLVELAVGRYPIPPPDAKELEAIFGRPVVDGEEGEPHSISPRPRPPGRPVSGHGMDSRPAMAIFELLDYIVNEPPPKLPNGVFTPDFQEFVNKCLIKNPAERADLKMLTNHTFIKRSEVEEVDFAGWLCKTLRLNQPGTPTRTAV
Chain of BMPR1B (O00238 whole entry): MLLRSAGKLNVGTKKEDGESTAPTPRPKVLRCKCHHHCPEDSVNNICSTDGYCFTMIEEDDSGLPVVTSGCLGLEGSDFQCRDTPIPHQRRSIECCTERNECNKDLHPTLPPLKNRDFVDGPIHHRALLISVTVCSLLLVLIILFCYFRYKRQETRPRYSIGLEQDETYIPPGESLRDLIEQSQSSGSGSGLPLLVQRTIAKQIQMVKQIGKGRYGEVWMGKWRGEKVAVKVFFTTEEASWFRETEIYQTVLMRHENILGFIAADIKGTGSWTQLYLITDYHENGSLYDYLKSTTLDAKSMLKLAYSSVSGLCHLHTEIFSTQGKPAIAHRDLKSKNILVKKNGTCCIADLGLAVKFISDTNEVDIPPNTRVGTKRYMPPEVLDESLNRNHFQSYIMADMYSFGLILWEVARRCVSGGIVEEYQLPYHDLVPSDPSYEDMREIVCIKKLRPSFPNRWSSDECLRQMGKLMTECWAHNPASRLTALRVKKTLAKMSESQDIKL
T2 sequence (Q96D53 whole entry): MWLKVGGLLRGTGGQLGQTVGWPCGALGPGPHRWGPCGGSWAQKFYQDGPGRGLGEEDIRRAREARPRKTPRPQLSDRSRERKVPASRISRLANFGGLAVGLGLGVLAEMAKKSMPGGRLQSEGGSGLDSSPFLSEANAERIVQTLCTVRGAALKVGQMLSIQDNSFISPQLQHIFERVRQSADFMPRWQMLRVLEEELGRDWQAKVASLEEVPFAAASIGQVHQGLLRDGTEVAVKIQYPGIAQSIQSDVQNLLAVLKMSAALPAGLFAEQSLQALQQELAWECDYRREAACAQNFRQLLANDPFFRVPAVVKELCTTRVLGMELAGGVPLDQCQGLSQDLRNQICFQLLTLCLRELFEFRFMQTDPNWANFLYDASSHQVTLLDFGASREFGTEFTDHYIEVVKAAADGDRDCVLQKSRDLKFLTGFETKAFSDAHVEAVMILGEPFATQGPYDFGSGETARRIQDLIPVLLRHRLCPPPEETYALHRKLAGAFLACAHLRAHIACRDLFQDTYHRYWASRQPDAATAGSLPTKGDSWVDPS
Chain of CDKL1 (Q00532 whole entry): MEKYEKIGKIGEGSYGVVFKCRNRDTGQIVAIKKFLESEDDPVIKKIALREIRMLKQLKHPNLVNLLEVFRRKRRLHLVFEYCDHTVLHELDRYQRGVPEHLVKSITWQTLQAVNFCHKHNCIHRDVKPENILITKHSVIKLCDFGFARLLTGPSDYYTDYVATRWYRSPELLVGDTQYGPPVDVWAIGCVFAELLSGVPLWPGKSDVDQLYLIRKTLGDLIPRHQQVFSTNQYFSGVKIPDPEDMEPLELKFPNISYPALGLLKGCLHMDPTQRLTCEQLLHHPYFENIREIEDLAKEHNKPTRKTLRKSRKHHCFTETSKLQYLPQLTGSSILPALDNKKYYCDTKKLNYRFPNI

In general, Kd refers to the concentration at which binding is half-saturated. `Oc1ccc(C2=Cc3ccc(O)cc3OC2)cc1` [compound 1, idronoxil]: the remaining binding at 10 µM on MUSK came to 89%; on MAP2K2, 79%; on PKN2, 70%; at STK38 it was 68%; on HCK, 83%; in [1], 71%. Moreover, the remaining binding at 10 µM on PRKCE was determined as 92%; on FLT3-autoinhibited, 51%; on WNK3 it was 80%; at AKT1, 75%; on TAOK3, 53%; on MAP3K19 (read-out: Percent Control), 12%. Further, the remaining binding at 10 µM was found to be 81% on ADCK4; 94% on MAPK3; 77% at CDKL1; 68% at CAMKK2; 66% on BMPR1B; 63% on PI4KB. Besides, the remaining binding at 10 µM stood at 61% at KDR and 95% on CSNK1G1. The Kd on MAP3K19 was 2.2 µM.
